Test results as given in patent US20250136722A1, “CYTOTOXICITY TARGETING CHIMERAS” (GLAXOSMITHKLINE INTELLECTUAL PROPERTY DEVELOPMENT LIMITED, priority 2021, published 2025).
“And” between values parts separate entries of the source, which are not always exact repeats. Equal values may be shown once. Where a name gives a salt, the structure may show the parent alone.

Legend:
[1] = molecular target: human alpha1 nicotinic acetylcholine (nACh) receptor (Homo sapiens, UniProt P02708+Q07001); experiment: Nicotinic acetylcholine receptor antagonism assay, IONFlux automated patch clamp (Example 203); assay type: cell-based; details: for Emax at 100 µM: maximum percentage antagonism at maximum concentration tested 100 μM, read-out: Maximum Response (%); for IC50: nAChR antagonism, ACh stimulated, patch clamp
Sequence of human alpha1 nicotinic acetylcholine (nACh) receptor (P02708 21-457): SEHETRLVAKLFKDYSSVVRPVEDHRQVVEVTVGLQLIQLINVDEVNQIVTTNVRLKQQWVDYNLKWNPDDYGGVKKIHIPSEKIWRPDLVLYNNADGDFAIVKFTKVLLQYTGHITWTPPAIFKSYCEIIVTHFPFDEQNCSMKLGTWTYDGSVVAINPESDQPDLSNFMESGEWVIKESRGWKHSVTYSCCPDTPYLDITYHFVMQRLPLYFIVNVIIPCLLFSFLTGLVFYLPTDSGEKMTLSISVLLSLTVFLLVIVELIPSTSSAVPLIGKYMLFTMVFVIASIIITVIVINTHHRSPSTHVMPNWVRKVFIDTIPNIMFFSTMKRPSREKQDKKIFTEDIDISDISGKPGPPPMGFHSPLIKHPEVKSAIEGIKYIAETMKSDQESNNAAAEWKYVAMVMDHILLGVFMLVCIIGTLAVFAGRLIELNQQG
Sequence of human alpha1 nicotinic acetylcholine (nACh) receptor (P11230 24-501 partner): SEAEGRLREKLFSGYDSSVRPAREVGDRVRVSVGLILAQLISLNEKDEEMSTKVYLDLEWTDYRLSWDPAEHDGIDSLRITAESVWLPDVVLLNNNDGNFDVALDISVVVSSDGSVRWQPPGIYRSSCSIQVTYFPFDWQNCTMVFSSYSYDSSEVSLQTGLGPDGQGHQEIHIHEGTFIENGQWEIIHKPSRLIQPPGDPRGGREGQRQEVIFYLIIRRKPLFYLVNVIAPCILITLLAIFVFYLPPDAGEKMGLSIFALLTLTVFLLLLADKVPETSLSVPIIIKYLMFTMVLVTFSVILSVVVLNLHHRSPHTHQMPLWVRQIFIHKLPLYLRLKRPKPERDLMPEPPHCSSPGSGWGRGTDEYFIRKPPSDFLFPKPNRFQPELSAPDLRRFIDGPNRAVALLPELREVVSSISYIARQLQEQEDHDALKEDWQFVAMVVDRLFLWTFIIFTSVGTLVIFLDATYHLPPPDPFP
Sequence of human alpha1 nicotinic acetylcholine (nACh) receptor (Q07001 22-517): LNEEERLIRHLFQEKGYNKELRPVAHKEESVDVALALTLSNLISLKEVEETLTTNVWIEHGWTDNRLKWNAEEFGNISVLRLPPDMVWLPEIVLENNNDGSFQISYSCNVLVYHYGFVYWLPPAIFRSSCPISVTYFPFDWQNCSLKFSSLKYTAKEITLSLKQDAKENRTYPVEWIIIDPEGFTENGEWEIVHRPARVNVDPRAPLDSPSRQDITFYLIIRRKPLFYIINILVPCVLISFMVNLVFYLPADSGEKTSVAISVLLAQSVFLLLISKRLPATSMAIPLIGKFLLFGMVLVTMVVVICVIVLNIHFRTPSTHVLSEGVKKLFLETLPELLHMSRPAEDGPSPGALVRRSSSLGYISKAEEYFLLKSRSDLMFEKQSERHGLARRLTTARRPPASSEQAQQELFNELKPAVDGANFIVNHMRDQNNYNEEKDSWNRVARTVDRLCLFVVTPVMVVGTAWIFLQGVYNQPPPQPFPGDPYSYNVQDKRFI
Description: Cells expressing human alpha1 nicotinic acetylcholine (nACh) receptor (nAChR) were washed and dissociated using Trypsin containing buffer. Cells were then washed and seeded at a density of 3-5 million cells/mL and allowed to grow for 3 days. Then, 60-80 μL of cells were added to plates and incubated with dose response of an ARM compound of Formula (I) with a top concentration of either 10 μM or 100 μM. The receptor was then stimulated via addition of acetylcholine (ACh) and activation of the receptor was monitored via the IONFlux automated patch clamp system. IonFlux Data Analyzer software was utilized to perform leak subtraction and measure (min) peak current amplitude.
Data processing: (1) Current values recorded for vehicle only applications in individual traps/patterns were subtracted from corresponding current amplitude values for control, test article and control+test article. (2) Control response was calculated as % of the average response of the 3rd out of total 3 ACh (10 mM) applications alone. In rare situations, if the 3rd ACh response was obscured due to technical artifacts, the 2nd and/or 1 st ACh (10 mM) application was considered as control. The peak current amplitude generated in the presence of each test article concentration was then used to calculate the % inhibition as compared to control response (10 mM ACh alone). These estimates were further corrected for vehicle response and run down corrected by normalizing with time matched control responses (10 mM ACh alone). The corrected percentages were then fit with a non-linear function in GraphPad Prism 6 (or later versions) to determine the […].
Exclusion criteria: (i) any n's with poor recording quality, (ii) control current amplitude <500 pA or (iii) significant outliers, as determined by the Grubbs' test.
ARMs compounds of Formula (I) of the invention were tested for antagonism of the nAChR in the above assay in […] experimental runs and the results are shown in Table 7 below. Antagonistic activity of the compounds of Formula (I) of the invention is reported as an IC50 value (half maximal inhibitory concentration) and the maximum percentage antagonism observed at the highest concentration of compound of Formula (I) tested, as indicated in Table 7. For compounds tested in more than one experimental run, the IC50 value is reported as an average.

[2] = molecular target: T1, CHOK1 cells engineered to overexpress human CCR2 (Homo sapiens, UniProt P41597); experiment: Antibody dependent cellular cytotoxicity (ADCC) reporter assay (Example 199); assay type: cell-based; details: with anti-cotinine antibody SEQ ID NO: 11/12; CHOK1-human CCR2 target cells, Jurkat FcγRIIIa NFAT-luciferase reporter cells; 12-18 hours; read-out: ADCC Reporter Assay pEC50 (converted)
T1 construct: expressed in transfected cells; host or cells: CHOK1 cells
How it was run: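 Potency is reported as pEC50 from a nonlinear fit, averaged over runs, using luciferase signal divided by that of compound-free wells. The readout comes from NFAT-luciferase Jurkat cells expressing FcγRIIIa, mixed for 12–18 h with human CCR2-overexpressing CHOK1 cells, 1 pM–10 μM ARM compound and 0.01–200 μg/mL Fc-enhanced anti-cotinine IgG1.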

Row | Emax at 100 µM [1] | IC50 [1] | Structure (SMILES) | EC50 [2]
1 | 73.1% | 47200 nM | CC(C)N(C)[C@@H]1CC[C@H](N2CC[C@H](Nc3ncnc4ccc(C(F)(F)F)cc34)C2=O)[C@H](NC(=O)[C@H]2C[C@H](NC(=O)CCCO[C@H]3CC[C@H](OCCNC(=O)[C@H]4CC(=O)N(C)[C@@H]4c4cccnc4)CC3)C2)C1 [Example 8] | 0.631 nM
2 | 53.9% | 82000 nM | CC(C)N(C)[C@@H]1CC[C@H](N2CC[C@H](Nc3ncnc4ccc(C(F)(F)F)cc34)C2=O)[C@H](NC(=O)[C@H]2C[C@@H](NC(=O)CCCO[C@H]3CC[C@H](OCCNC(=O)[C@H]4CC(=O)N(C)[C@@H]4c4cccnc4)CC3)C2)C1 [Example 9] | 25.1 nM
3 | 53.8% | 93700 nM | CC(C)N(C)[C@@H]1CC[C@H](N2CC[C@H](Nc3ncnc4ccc(C(F)(F)F)cc34)C2=O)[C@H](NC(=O)[C@H]2C[C@H](NC(=O)CCOCCOCCOCCNC(=O)[C@H]3CC(=O)N(C)[C@@H]3c3cccnc3)C2)C1 [Example 27] | 7.28 nM
4 |  |  | CC(C)N(C)[C@@H]1CC[C@H](N2CC[C@H](Nc3ncnc4ccc(C(F)(F)F)cc34)C2=O)[C@H](NC(=O)CCCN2CCC3(CCC(C(=O)NCCNC(=O)[C@H]4CC(=O)N(C)[C@@H]4c4cccnc4)CC3)CC2)C1 [Example 183, 3-(4-(((1R,2S,5R)-5-(Isopropyl(methyl)amino)-2-((S)-2-oxo-3-((6-(trifluoromethyl)quinazolin-4-yl)amino)pyrrolidin-1-yl)cyclohexyl)amino)-4-oxobutyl)-N-(2-((2S,3S)-1-methyl-5-oxo-2-(pyridin-3-yl)pyrrolidine-3-carboxamido)ethyl)-3-azaspiro[5.5]undecane-9-carboxamide, 3 Formic acid salt] | 0.501 nM
5 |  |  | CC(C)N(C)[C@@H]1CC[C@H](N2CC[C@H](Nc3ncnc4ccc(C(F)(F)F)cc34)C2=O)[C@H](NC(=O)C2CCN(C3CCN(C4CCN(CCCCNC(=O)[C@H]5CC(=O)N(C)[C@@H]5c5cccnc5)CC4)CC3)CC2)C1 [Example 185, N-((1R,2S,5R)-5-(isopropyl(methyl)amino)-2-((S)-2-oxo-3-((6-(trifluoromethyl)quinazolin-4-yl)amino)pyrrolidin-1-yl)cyclohexyl)-1″-(4-((2S,3S)-1-methyl-5-oxo-2-(pyridin-3-yl)pyrrolidine-3-carboxamido)butyl)-[1,4′:1′,4″-terpiperidine]-4-carboxamide] | 0.501 nM
6 |  |  | CC(C)N(C)[C@@H]1CC[C@H](N2CC[C@H](Nc3ncnc4ccc(C(F)(F)F)cc34)C2=O)[C@H](NC(=O)[C@H]2CC[C@H](C3CCN(CCOCCOCCNC(=O)[C@H]4CC(=O)N(C)[C@@H]4c4cccnc4)CC3)CC2)C1 [Example 189, (2S,3S)-N-(2-(2-(2-(4-((1R,4r)-4-(((1R,2S,5R)-5-(Isopropyl(methyl)amino)-2-((S)-2-oxo-3-((6-(trifluoromethyl)quinazolin-4-yl)amino)pyrrolidin-1-yl)cyclohexyl)carbamoyl)cyclohexyl)piperidin-1-yl)ethoxy)ethoxy)ethyl)-1-methyl-5-oxo-2-(pyridin-3-yl)pyrrolidine-3-carboxamide] | 6.31 nM
7 | 53% | 74300 nM | CC(C)N(C)[C@@H]1CC[C@H](N2CC[C@H](Nc3ncnc4ccc(C(F)(F)F)cc34)C2=O)[C@H](NC(=O)CCOCCOCCO[C@H]2CC[C@H](OCCNC(=O)[C@H]3CC(=O)N(C)[C@@H]3c3cccnc3)CC2)C1 [Example 192, (2S,3S)-N-(2-(((1R,4S)-4-(2-(2-(3-(((1R,2S,5R)-5-(Isopropyl(methyl)amino)-2-((S)-2-oxo-3-((6-(trifluoromethyl)quinazolin-4-yl)amino)pyrrolidin-1-yl)cyclohexyl)amino)-3-oxopropoxy)ethoxy)ethoxy)cyclohexyl)oxy)ethyl)-1-methyl-5-oxo-2-(pyridin-3-yl)pyrrolidine-3-carboxamide] | 
8 |  |  | CC(C)N(C)[C@@H]1CC[C@H](N2CC[C@H](Nc3ncnc4ccc(C(F)(F)F)cc34)C2=O)[C@H](NC(=O)[C@H]2CC[C@@H](NC(=O)CCCOCCCOCCCNC(=O)[C@H]3CC(=O)N(C)[C@@H]3c3cccnc3)CC2)C1 [Example 193, (2S,3S)-N-(3-(3-(4-(((1S,4s)-4-(((1R,2S,5R)-5-(Isopropyl(methyl)amino)-2-((S)-2-oxo-3-((6-(trifluoromethyl)quinazolin-4-yl)amino)pyrrolidin-1-yl)cyclohexyl)carbamoyl)cyclohexyl)amino)-4-oxobutoxy)propoxy)propyl)-1-methyl-5-oxo-2-(pyridin-3-yl)pyrrolidine-3-carboxamide] | 0.398 nM and 0.126 nM
9 |  |  | CC(C)N(C)[C@@H]1CC[C@H](N2CC[C@H](Nc3ncnc4ccc(C(F)(F)F)cc34)C2=O)[C@H](NC(=O)CCCCCCCCNCCOCCOCCOCCOCCNC(=O)[C@H]2CC(=O)N(C)[C@@H]2c2cccnc2)C1 [Example 195, (2S,3S)-N-(24-(((1R,2S,5R)-5-(Isopropyl(methyl)amino)-2-((S)-2-oxo-3-((6-(trifluoromethyl)quinazolin-4-yl)amino)pyrrolidin-1-yl)cyclohexyl)amino)-24-oxo-3,6,9,12-tetraoxa-15-azatetracosyl)-1-methyl-5-oxo-2-(pyridin-3-yl)pyrrolidine-3-carboxamide, 3Trifluoroacetic acid salt] | 0.158 nM
10 |  |  | CC(C)N(C)[C@@H]1CC[C@H](N2CC[C@H](Nc3ncnc4ccc(C(F)(F)F)cc34)C2=O)[C@H](NC(=O)[C@H]2CC[C@@H](NC(=O)CCOCCCOCCCNC(=O)[C@H]3CC(=O)N(C)[C@@H]3c3cccnc3)CC2)C1 [Example 197, (2S,3S)-N-(3-(3-(3-(((1S,4s)-4-(((1R,2S,5R)-5-(Isopropyl(methyl)amino)-2-((S)-2-oxo-3-((6-(trifluoromethyl)quinazolin-4-yl)amino)pyrrolidin-1-yl)cyclohexyl)carbamoyl)cyclohexyl)amino)-3-oxopropoxy)propoxy)propyl)-1-methyl-5-oxo-2-(pyridin-3-yl)pyrrolidine-3-carboxamide] | 0.251 nM
11 |  |  | CC(C)N(C)[C@@H]1CC[C@H](N2CC[C@H](Nc3ncnc4ccc(C(F)(F)F)cc34)C2=O)[C@H](NC(=O)[C@H]2CC[C@H](N3CCN(CCOCCOCCNC(=O)[C@H]4CC(=O)N(C)[C@@H]4c4cccnc4)CC3)CC2)C1 [compound 190] | 2.51 nM
12 |  |  | CC(C)N(C)[C@@H]1CC[C@H](N2CC[C@H](Nc3ncnc4ccc(C(F)(F)F)cc34)C2=O)[C@H](NC(=O)CCCCCCCCNCCCCCCCCCCNC(=O)[C@H]2CC(=O)N(C)[C@@H]2c2cccnc2)C1 [compound 196] | 0.251 nM

Row | Structure (SMILES) | Emax at 100 µM [1] | IC50 [1] | EC50 [2]
13 | CC(C)N(C)[C@@H]1CC[C@H](N2CC[C@H](Nc3ncnc4ccc(C(F)(F)F)cc34)C2=O)[C@H](NC(=O)[C@H]2CC[C@@H](NC(=O)CCOCCCNC(=O)CCCNC(=O)[C@H]3CC(=O)N(C)[C@@H]3c3cccnc3)CC2)C1 [Example 17, (2S,3S)-N-(4-((3-(3-(((1S,4s)-4-(((1R,2S,5R)-5-(Isopropyl(methyl)amino)-2-((S)-2-oxo-3-((6-(trifluoromethyl)quinazolin-4-yl)amino)pyrrolidin-1-yl)cyclohexyl)carbamoyl)cyclohexyl)amino)-3-oxopropoxy)propyl)amino)-4-oxobutyl)-1-methyl-5-oxo-2-(pyridin-3-yl)pyrrolidine-3-carboxamide] | 55.1% | ≥ 100000 nM | 0.338 nM and 0.656 nM
14 | CC(C)N(C)[C@@H]1CC[C@H](N2CC[C@H](Nc3ncnc4ccc(C(F)(F)F)cc34)C2=O)[C@H](NC(=O)[C@H]2C[C@@H](NC(=O)CCOCCNC(=O)CCOCCNC(=O)[C@H]3CC(=O)N(C)[C@@H]3c3cccnc3)C2)C1 [Example 44, (2S,3S)-N-(2-(3-((2-(3-(((1S,3s)-3-(((1R,2S,5R)-5-(Isopropyl(methyl)amino)-2-((S)-2-oxo-3-((6-(trifluoromethyl)quinazolin-4-yl)amino)pyrrolidin-1-yl)cyclohexyl)carbamoyl)cyclobutyl)amino)-3-oxopropoxy)ethyl)amino)-3-oxopropoxy)ethyl)-1-methyl-5-oxo-2-(pyridin-3-yl)pyrrolidine-3-carboxamide] | 51.5% | ≥ 100000 nM | 0.897 nM
